Reference: ChEMBL document CHEMBL1208750, “Synthesis, larvicidal activity, and SAR studies of new benzoylphenylureas containing oxime ether and oxime ester group” (2010)
≈ marks a conversion by molar mass, not a printed value.

Legend:
Assay type in all cases: functional
Aedes aegypti [1] = assay: Larvicidal activity against mosquito larvae at 0.0025 mg/L
Mythimna separata [2] = assay: Larvicidal activity against Oriental armyworm at 2.5 mg/L
Mythimna separata [3] = assay: Larvicidal activity against Oriental armyworm at 1 mg/L
Mythimna separata [4] = assay: Larvicidal activity against Oriental armyworm at 0.5 mg/L
Mythimna separata [5] = assay: Larvicidal activity against Oriental armyworm at 0.25 mg/L
Aedes aegypti [6] = assay: Larvicidal activity against mosquito larvae at 0.005 mg/L
Aedes aegypti [7] = assay: Larvicidal activity against mosquito larvae at 0.001 mg/L
Aedes aegypti [8] = assay: Larvicidal activity against mosquito larvae at 0.01 mg/L
Mythimna separata [9] = assay: Larvicidal activity against Oriental armyworm at 10 mg/L
Mythimna separata [10] = assay: Larvicidal activity against Oriental armyworm at 5 mg/L
Aedes aegypti [11] = assay: Larvicidal activity against mosquito larvae at 0.1 mg/L
Aedes aegypti [12] = assay: Larvicidal activity against mosquito larvae at 0.05 mg/L
Aedes aegypti [13] = assay: Larvicidal activity against mosquito larvae at 0.025 mg/L
Spodoptera exigua = assay: Larvicidal activity against beet armyworm
Plutella xylostella = assay: Larvicidal activity against diamondback moth
Ostrinia nubilalis = assay: Larvicidal activity against corn Borer
Mythimna separata [14] = assay: Larvicidal activity against Oriental armyworm at 50 mg/L
Mythimna separata [15] = assay: Larvicidal activity against Oriental armyworm at 25 mg/L
Mythimna separata [16] = assay: Larvicidal activity against Oriental armyworm at 100 mg/L
Aedes aegypti [17] = assay: Larvicidal activity against mosquito larvae at 0.25 mg/L
Aedes aegypti [18] = assay: Larvicidal activity against mosquito larvae at 0.5 mg/L
Aedes aegypti [19] = assay: Larvicidal activity against mosquito larvae at 1 mg/L
Aedes aegypti [20] = assay: Larvicidal activity against mosquito larvae at 2 mg/L
Mythimna separata [21] = assay: Larvicidal activity against Oriental armyworm at 200 mg/L
Mythimna separata [22] = assay: Larvicidal activity against Oriental armyworm at 0.125 mg/L
Aedes aegypti [23] = assay: Larvicidal activity against mosquito larvae at 0.0001 mg/L
Aedes aegypti [24] = assay: Larvicidal activity against mosquito larvae at 0.00025 mg/L

`CC(C)O/N=C/c1ccc(NC(=O)NC(=O)c2c(F)cccc2F)cc1` was tested, and the Activity (Aedes aegypti [1]) was 15%, the Activity (Mythimna separata [2]) was 100% and the Activity (Mythimna separata [3]) was 100%. The Activity (Mythimna separata [4]) was 50%, the Activity (Mythimna separata [5]) was 0% and the Activity (Aedes aegypti [6]) was 75%. The Activity (Aedes aegypti [7]) was 0%.

Compound `O=C(NC(=O)c1c(F)cccc1F)Nc1ccc(CO/N=C(/c2ccc(Cl)cc2)C2CC2)cc1` [FLUCYCLOXURON] has an Activity (Aedes aegypti [8]) of 0%, an Activity (Mythimna separata [9]) of 95% and an Activity (Mythimna separata [10]) of 90%. It also gave an Activity (Mythimna separata [2]) of 50%, an Activity (Mythimna separata [3]) of 10% and an Activity (Mythimna separata [4]) of 0%. It also gave an Activity (Aedes aegypti [11]) of 100%, an Activity (Aedes aegypti [12]) of 100% and an Activity (Aedes aegypti [13]) of 15%. For the same compound, the LC50 (Spodoptera exigua) was 102 µg/mL (≈ 210 µM), the LC50 (Plutella xylostella) was 72.9 µg/mL (≈ 151 µM) and the LC50 (Ostrinia nubilalis) was 9.25 µg/mL (≈ 19.1 µM).

`CC(C)(C)O/N=C/c1cccc(NC(=O)NC(=O)c2c(F)cccc2F)c1` gave an Activity (Mythimna separata [14]) of 100%, an Activity (Mythimna separata [15]) of 90% and an Activity (Mythimna separata [16]) of 100%.

In the case of `CC(C)O/N=C(\C#N)c1ccc(NC(=O)NC(=O)c2c(F)cccc2F)cc1`, the Activity (Aedes aegypti [8]) is reported as 0%, the Activity (Mythimna separata [9]) is reported as 80% and the Activity (Mythimna separata [10]) is reported as 40%. For the same compound, the Activity (Mythimna separata [2]) was 0%, the Activity (Mythimna separata [14]) was 100% and the Activity (Aedes aegypti [17]) was 100%. It also gave an Activity (Aedes aegypti [11]) of 100%, an Activity (Aedes aegypti [12]) of 50% and an Activity (Aedes aegypti [13]) of 10%.

Work on `C/C(=N\OC(C)C)c1ccc(NC(=O)NC(=O)c2c(F)cccc2F)cc1` yielded an Activity (Mythimna separata [9]) of 100%, an Activity (Mythimna separata [10]) of 100% and an Activity (Mythimna separata [2]) of 65%. For the same compound, the Activity (Mythimna separata [3]) was 10%, the Activity (Mythimna separata [4]) was 0% and the Activity (Aedes aegypti [18]) was 100%. The Activity (Aedes aegypti [17]) was 100%, the Activity (Aedes aegypti [11]) was 90% and the Activity (Aedes aegypti [12]) was 90%. It also gave an Activity (Aedes aegypti [13]) of 30%.

Work on `O=C(NC(=O)c1c(F)cccc1F)Nc1ccc(/C=N/OC(=O)c2ccccc2)cc1` yielded an Activity (Mythimna separata [9]) of 80%, an Activity (Mythimna separata [10]) of 40% and an Activity (Mythimna separata [2]) of 0%. It also gave an Activity (Mythimna separata [15]) of 90%, an Activity (Aedes aegypti [18]) of 100% and an Activity (Aedes aegypti [17]) of 80%. The Activity (Aedes aegypti [11]) was 30% and the Activity (Aedes aegypti [19]) was 100%.

Work on `CC(C)(C)O/N=C/c1ccc(NC(=O)NC(=O)c2c(F)cccc2F)c(F)c1` yielded an Activity (Mythimna separata [2]) of 100%, an Activity (Mythimna separata [3]) of 100% and an Activity (Mythimna separata [4]) of 90%. The Activity (Mythimna separata [5]) was 10%, the LC50 (Spodoptera exigua) was 3.37 µg/mL (≈ 8.57 µM) and the LC50 (Plutella xylostella) was 0.57 µg/mL (≈ 1.45 µM). It also gave an LC50 (Ostrinia nubilalis) of 10 µg/mL (≈ 25.5 µM).

Work on `C/C(=N\OCc1ccccc1)c1ccc(NC(=O)NC(=O)c2c(F)cccc2F)cc1` yielded an Activity (Mythimna separata [9]) of 10%, an Activity (Mythimna separata [14]) of 90% and an Activity (Mythimna separata [15]) of 80%. The Activity (Aedes aegypti [20]) was 0% and the Activity (Aedes aegypti [19]) was 0%.

In the case of `CC(C)(C)O/N=C/c1ccccc1NC(=O)NC(=O)c1c(F)cccc1F`, the Activity (Mythimna separata [21]) is reported as 0%.

`CC(=O)O/N=C/c1ccc(NC(=O)NC(=O)c2c(F)cccc2F)cc1` showed an Activity (Mythimna separata [9]) of 0%, an Activity (Mythimna separata [14]) of 20% and an Activity (Mythimna separata [15]) of 10%. For the same compound, the Activity (Mythimna separata [21]) was 100%, the Activity (Mythimna separata [16]) was 50% and the Activity (Aedes aegypti [18]) was 20%. It also gave an Activity (Aedes aegypti [17]) of 0%, an Activity (Aedes aegypti [20]) of 100% and an Activity (Aedes aegypti [19]) of 100%.

In the case of `CC(C)O/N=C/c1ccc(NC(=O)NC(=O)c2c(F)cccc2F)c(Cl)c1`, the Activity (Aedes aegypti [8]) is reported as 100%, the Activity (Mythimna separata [10]) is reported as 100% and the Activity (Mythimna separata [2]) is reported as 90%. It also gave an Activity (Mythimna separata [3]) of 10%, an Activity (Mythimna separata [4]) of 0% and an Activity (Aedes aegypti [18]) of 100%. The Activity (Aedes aegypti [6]) was 30%.

`CC(C)O/N=C/c1ccc(NC(=O)NC(=O)c2c(F)cccc2F)c(F)c1` gave an Activity (Aedes aegypti [8]) of 100%, an Activity (Aedes aegypti [1]) of 50% and an Activity (Mythimna separata [2]) of 100%. For the same compound, the Activity (Mythimna separata [3]) was 100%, the Activity (Mythimna separata [4]) was 90% and the Activity (Mythimna separata [5]) was 10%. It also gave an Activity (Mythimna separata [22]) of 0%, an Activity (Aedes aegypti [6]) of 100% and an Activity (Aedes aegypti [7]) of 20%. It also gave an Activity (Aedes aegypti [23]) of 10%, an LC50 (Spodoptera exigua) of 4.32 µg/mL (≈ 11.4 µM) and an LC50 (Plutella xylostella) of 2.75 µg/mL (≈ 7.25 µM). It also gave an LC50 (Ostrinia nubilalis) of 7.59 µg/mL (≈ 20 µM).

`CC(C)(C)O/N=C/Cc1ccc(NC(=O)NC(=O)c2c(F)cccc2F)cc1` showed an Activity (Mythimna separata [9]) of 80%, an Activity (Mythimna separata [14]) of 100% and an Activity (Mythimna separata [15]) of 100%.

With `O=C(NC(=O)c1c(F)cccc1F)Nc1ccc(/C=N/Oc2ccc(Cl)cc2)cc1` the Activity (Aedes aegypti [1]) was 100%, the Activity (Mythimna separata [9]) was 100% and the Activity (Mythimna separata [10]) was 100%. The Activity (Mythimna separata [2]) was 80%, the Activity (Mythimna separata [3]) was 0% and the Activity (Aedes aegypti [7]) was 100%. It also gave an Activity (Aedes aegypti [24]) of 20%.

`O=C(NC(=O)c1c(F)cccc1F)Nc1ccc(/C=N/Oc2ccc(Br)cc2)cc1` showed an Activity (Aedes aegypti [8]) of 100%, an Activity (Aedes aegypti [1]) of 40% and an Activity (Mythimna separata [9]) of 100%. For the same compound, the Activity (Mythimna separata [10]) was 90%, the Activity (Mythimna separata [2]) was 90% and the Activity (Mythimna separata [3]) was 0%. For the same compound, the Activity (Mythimna separata [14]) was 90%, the Activity (Mythimna separata [15]) was 100% and the Activity (Aedes aegypti [6]) was 100%. It also gave an Activity (Aedes aegypti [7]) of 0% and an Activity (Aedes aegypti [23]) of 90%.

For `Cc1cccc(O/N=C/c2ccc(NC(=O)NC(=O)c3c(F)cccc3F)cc2)c1`, the Activity (Mythimna separata [9]) was 10%, the Activity (Mythimna separata [10]) was 0% and the Activity (Mythimna separata [14]) was 50%. The Activity (Mythimna separata [15]) was 30%, the Activity (Mythimna separata [21]) was 100% and the Activity (Mythimna separata [16]) was 90%. The Activity (Aedes aegypti [18]) was 90% and the Activity (Aedes aegypti [17]) was 60%.

`O=C(NC(=O)c1c(F)cccc1F)Nc1ccc(/C=N/Oc2ccccc2)cc1` showed an Activity (Aedes aegypti [8]) of 100%, an Activity (Aedes aegypti [1]) of 10% and an Activity (Mythimna separata [9]) of 20%. It also gave an Activity (Mythimna separata [10]) of 0%, an Activity (Mythimna separata [15]) of 40% and an Activity (Mythimna separata [21]) of 100%. For the same compound, the Activity (Mythimna separata [16]) was 100%, the Activity (Aedes aegypti [13]) was 100% and the Activity (Aedes aegypti [6]) was 20%.

`CC(C)C(=O)O/N=C/c1ccc(NC(=O)NC(=O)c2c(F)cccc2F)cc1` gave an Activity (Mythimna separata [9]) of 100%, an Activity (Mythimna separata [10]) of 100% and an Activity (Mythimna separata [2]) of 20%. The Activity (Mythimna separata [3]) was 10%, the Activity (Mythimna separata [4]) was 0% and the Activity (Aedes aegypti [18]) was 100%. The Activity (Aedes aegypti [17]) was 100%, the Activity (Aedes aegypti [11]) was 70% and the Activity (Aedes aegypti [12]) was 10%. It also gave an Activity (Aedes aegypti [13]) of 0%.

`Cc1cc(C)cc(C(=O)O/N=C/c2ccc(NC(=O)NC(=O)c3c(F)cccc3F)cc2)c1` was tested, and the Activity (Mythimna separata [9]) was 100%, the Activity (Mythimna separata [10]) was 90% and the Activity (Mythimna separata [2]) was 0%. It also gave an Activity (Mythimna separata [15]) of 100%, an Activity (Aedes aegypti [18]) of 100% and an Activity (Aedes aegypti [17]) of 100%. It also gave an Activity (Aedes aegypti [11]) of 90%, an Activity (Aedes aegypti [12]) of 90% and an Activity (Aedes aegypti [13]) of 10%.

`CC(C)O/N=C/c1ccc(NC(=O)NC(=O)c2c(F)cccc2F)cc1Cl` gave an Activity (Aedes aegypti [8]) of 100%, an Activity (Aedes aegypti [1]) of 30% and an Activity (Mythimna separata [10]) of 100%. The Activity (Mythimna separata [2]) was 90%, the Activity (Mythimna separata [3]) was 10% and the Activity (Mythimna separata [4]) was 0%. The Activity (Aedes aegypti [6]) was 100% and the Activity (Aedes aegypti [7]) was 10%.

Work on `N#C/C(=N\OCc1ccccc1)c1ccc(NC(=O)NC(=O)c2c(F)cccc2F)cc1` yielded an Activity (Mythimna separata [21]) of 0%, an Activity (Aedes aegypti [18]) of 100% and an Activity (Aedes aegypti [17]) of 100%. For the same compound, the Activity (Aedes aegypti [11]) was 90% and the Activity (Aedes aegypti [12]) was 0%.
